Entries after “also recorded” stand apart in the source; their conditions may differ.
Legend:
[1] = system: NRH-induced NAD+ Synthesis; test: Intracellular NAD-related metabolites after NRH or NR treatment; assay type: cell-based
From the text: Levels of NRH and other NAD-related metabolites in biological samples were obtained by using a cold liquid-liquid extraction using a mixture of methanol:water:chloroform in 5:3:5 (v/v), from which the polar phase was recovered for hydrophilic interaction ultra-high performance liquid chromatography mass spectrometry (UHPLC-MS) analysis. The UHPLC consisted of a binary pump, a cooled autosampler, and a column oven (DIONEX Ultimate 3000 UHPLC+ Focused, Thermo Scientific), connected to a triple quadrupole spectrometer (TSQ Vantage, Thermo Scientific) equipped with a heated electrospray ionisation (H-ESI) source. Of each sample, 2 μL were injected into the analytical column (2.1 mm×150 mm, 5 μm pore size, 200 Å HILICON iHILIC®-Fusion(P)), guarded by a pre-column (2.1 mm×20 mm, 200 Å HILICON iHILIC®-Fusion(P) Guard Kit) operating at 35° C. The mobile phase (10 mM ammonium acetate at pH 9, A, and acetonitrile, B) was pumped at 0.25 mL/min flow rate over a linear gradient of decreasing organic solvent (0.5-16 min, 90-25% B), followed by re-equilibration for a total run time of 30 min. The MS operated in positive mode at 3500 V with multiple reaction monitoring (MRM). The software Xcalibur v4.1.31.9 (Thermo Scientific) was used for instrument control, data acquisition and processing. Retention time and mass detection was confirmed by authentic standards. […]

NAMPT = NAMPT (Mus musculus, UniProt Q99KQ4); test: NRH action in presence of NAMPT inhibitor FK866; assay type: cell-based; conditions: FK866, a NAMPT inhibitor
Sequence of NAMPT (Q99KQ4 whole entry): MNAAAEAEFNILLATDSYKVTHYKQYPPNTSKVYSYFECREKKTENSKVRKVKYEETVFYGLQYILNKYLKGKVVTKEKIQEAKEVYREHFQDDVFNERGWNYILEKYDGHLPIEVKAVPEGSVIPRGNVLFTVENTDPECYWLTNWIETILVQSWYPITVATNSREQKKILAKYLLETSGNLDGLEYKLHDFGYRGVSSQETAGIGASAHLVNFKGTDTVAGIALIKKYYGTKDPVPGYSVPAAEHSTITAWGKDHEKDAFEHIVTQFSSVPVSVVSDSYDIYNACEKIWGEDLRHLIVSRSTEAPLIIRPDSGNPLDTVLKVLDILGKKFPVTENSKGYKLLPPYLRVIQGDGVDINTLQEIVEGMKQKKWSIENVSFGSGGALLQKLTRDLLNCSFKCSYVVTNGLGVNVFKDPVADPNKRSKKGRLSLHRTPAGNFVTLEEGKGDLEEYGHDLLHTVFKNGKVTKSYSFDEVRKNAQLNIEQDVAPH

adenosine kinase (AK) = molecular target: T1, adenosine kinase (AK) (Mus musculus, UniProt P55264); test: NRH-induced NAD+ synthesis under adenosine kinase inhibition (5-IT, ABT-702); assay type: cell-based
T1 construct: endogenous in cells; host or cells: AML12 cells
T1 sequence (P55264 whole entry): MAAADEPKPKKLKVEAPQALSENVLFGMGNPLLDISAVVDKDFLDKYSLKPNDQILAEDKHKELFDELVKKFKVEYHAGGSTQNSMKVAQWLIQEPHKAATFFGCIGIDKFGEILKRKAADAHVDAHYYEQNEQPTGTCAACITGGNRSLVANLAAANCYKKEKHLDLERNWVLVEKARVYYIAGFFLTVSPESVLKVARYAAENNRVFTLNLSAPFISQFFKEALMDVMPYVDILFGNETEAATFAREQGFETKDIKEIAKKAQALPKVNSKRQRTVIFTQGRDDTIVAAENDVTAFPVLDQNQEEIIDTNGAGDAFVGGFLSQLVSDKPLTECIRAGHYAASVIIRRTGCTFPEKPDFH
Experimental: AML12 cells were treated with an adenosine kinase inhibitor (5-IT; […]) for 1 hour prior to NRH treatment at the doses indicated. Then, 1 hour later, acidic extracts were obtained to measure NAD^+ levels. All values in the figure are expressed as mean +/−SEM of 3 independent experiments. * indicates statistical difference at p<0.05 vs. the respective vehicle treated group.
Considering the molecular structure of NRH, we reasoned that an alternative nucleoside kinase could be responsible for the phosphorylation of NRH. Confirming this expectation, the adenosine kinase (AK) inhibitor 5-iodotubercidin (5-IT) fully ablated the action of NRH. […] Metabolomic analyses further confirmed that upon inhibition of AK, the generation of NMNH, NADH and NAD+ was fully blunted, even if NRH was effectively entering the cell.

[2] = system: NAD+ levels in liver, muscle and kidney; test: Tissue NAD+ levels after intraperitoneal injection of NR or NRH; assay type: in vivo, mice; conditions: IP 500 mg/kg, after 1 h
Experimental: (§1) The above results prompted us to test whether NRH could act as an effective NAD+ precursor in vivo. For this, we first intraperitoneally (IP) injected mice with either NR or NRH (500 mg/kg).

[3] = Circulating NAM, NRH and NR after intraperitoneal injection; assay type: in vivo, mice; conditions: mouse, in vivo, ip
From the text: Levels of NRH and other NAD-related metabolites in biological samples were obtained by using a cold liquid-liquid extraction using a mixture of methanol:water:chloroform in 5:3:5 (v/v), from which the polar phase was recovered for hydrophilic interaction ultra-high performance liquid chromatography mass spectrometry (UHPLC-MS) analysis. The UHPLC consisted of a binary pump, a cooled autosampler, and a column oven (DIONEX Ultimate 3000 UHPLC+ Focused, Thermo Scientific), connected to a triple quadrupole spectrometer (TSQ Vantage, Thermo Scientific) equipped with a heated electrospray ionisation (H-ESI) source. Of each sample, 2 μL were injected into the analytical column (2.1 mm×150 mm, 5 μm pore size, 200 Å HILICON iHILIC®-Fusion(P)), guarded by a pre-column (2.1 mm×20 mm, 200 Å HILICON iHILIC®-Fusion(P) Guard Kit) operating at 35° C. The mobile phase (10 mM ammonium acetate at pH 9, A, and acetonitrile, B) was pumped at 0.25 mL/min flow rate over a linear gradient of decreasing organic solvent (0.5-16 min, 90-25% B), followed by re-equilibration for a total run time of 30 min. The MS operated in positive mode at 3500 V with multiple reaction monitoring (MRM). The software Xcalibur v4.1.31.9 (Thermo Scientific) was used for instrument control, data acquisition and processing. Retention time and mass detection was confirmed by authentic standards.
as §1

[4] = system: NAD+ levels in liver, skeletal muscle and kidney; test: Tissue NAD+ levels after oral gavage of NR or NRH; assay type: in vivo, C57BI/6NTac mice
Experimental: 8 week-old C57BI/6NTac mice were orally gavaged with either saline (as vehicle), NR (500 mg/kg) or NRH (500 mg/kg). After 1 hour, liver, skeletal muscle and kidney NAD^+ levels were evaluated. All results are expressed as mean +/−SEM of n=5 mice per group. * indicates statistical difference at p<0.05 vs. vs. saline-treated mice. # indicates statistical difference at p<0.05 vs. NR treated mice.
Oral administration of NRH led to very similar results to those observed after IP administration. […] In contrast, NR levels were undetectable at 1 h after NR administration. As expected, NR treatment led to large increases in circulating NAM, which where ˜4-fold higher than those observed after NRH treatment.

NC(=O)C1=CN([C@@H]2O[C@H](CO)[C@@H](O)[C@H]2O)C=CC1 [NRH, dihydro-1-beta-D-ribofuranosyl-3-pyridinecarboxamide]
intracellular detection of NRH and NMNH ([1]; 5 minutes after treatment): could be detected intracellularly | intracellular NR and NMN ([1]; after treatment, compared with NR): increase in intracellular NR and NMN, greater than that triggered by NR itself | dependence of NRH action on NAMPT (NAMPT): NAMPT-independent | formation of NR and NMN after NRH treatment with 5-IT (adenosine kinase (AK); 5-IT treatment): prevented the formation of NR and NMN | action of NRH on NAD+ in presence of AK inhibitor 5-iodotubercidin (5-IT) (adenosine kinase (AK); AML12 cells, 5-IT 10 mM for 1 hour prior to NRH, NAD+ 1 hour later): fully ablated; also recorded: adenosine kinase dependent path | generation of NMNH, NADH and NAD+ upon inhibition of AK (adenosine kinase (AK); metabolomic analyses): fully blunted | NRH-mediated NAD+ synthesis in presence of AK inhibitor ABT-702 (adenosine kinase (AK); second, structurally different AK inhibitor): role of AK in NRH-mediated NAD+ synthesis was confirmed | NAD+ levels in kidney [2]: increased NAD+ levels | NAD+ levels in liver [2]: increased NAD+ levels | NAD+ levels in muscle [2]: increased NAD+ levels | NR in circulation after NRH treatment [3]: detectable in circulation after NRH treatment at much higher levels than those detected after NR injection itself | NRH in circulation [3]: detectable in circulation | NAM levels in circulation ([3]; 500 mg/kg): only a very mild increase | effect on hepatic NAD+ levels ([4]; oral administration, compared with NR): more potent effect on hepatic NAD+ levels than NR | NAD+ precursor activity in liver, muscle and kidney ([4]; oral gavage 500 mg/kg, after 1 hour (FIG. 5)): orally active NAD+ precursor in liver, muscle and kidney
